From patent US20240190883A1, “KRAS PROTEIN DEGRADERS, PHARMACEUTICAL COMPOSITIONS THEREOF, AND THEIR THERAPEUTIC APPLICATIONS” (BioTheryX, Inc., priority 2021, published 2024) come the findings set out here.

Common to all, as to type: cell-based
The test system of experiment [1] is H23 cells. Kind of experiment: Cell viability assay (CELLTITER-GLO), H23 cells. The settings on record: Homo sapiens, NCI-H23, 72 h, 3 days incubation, 2.5% fetal bovine serum, read-out: Inhibition of Cancerous Cells IC50 (μM) H23. How it is done: (§1) H358, H23, SW48, and AsPC-1 cells were cultured in RPMI 1640 media supplemented with 10% fetal bovine serum, streptomycin, and penicillin. Lovo and SW480 cells were cultured in DMEM media supplemented with 10% fetal bovine serum, streptomycin, and penicillin. The cell lines were plated in their respective medium supplemented with 2.5% fetal bovine serum, streptomycin, and penicillin. All cell lines were plated in white walled 96-well plates at 2,000 cells/well or 384-well plates at 500 cells/well, except Lovo, which were plated at 4,000 or 1,000 cells/well, respectively. The cells were incubated in DMSO (control) or a compound for 3 days at 37° C. under 5% C02. A CELLTITER-GLO® reagent (100 μL) was then added to each well. After a 10 min incubation with shaking, luminescence was measured using an ENVISION® multimode plate reader. IC50 values are summarized in Table 1 and percentages of inhibition are summarized in Table 2, where compound T1 is 2-(4-(2-methyl-3,5-diphenylpyrazolo[1,5-a]pyrimidin-7-yl)piperazin-1-yl)ethan-1-ol.

The test system of experiment [2] is SW48 (wt) cells. Kind of experiment: Cell viability assay (CELLTITER-GLO), SW48 cells. The note with it: Homo sapiens, 72 h, 3 days incubation, 2.5% fetal bovine serum, read-out: Inhibition of Cancerous Cells IC50 (μM) SW48 (wt). As for the experimental part:
as §1
In general terms: ATP-based viability assays read luminescence as a measure of living cells.

The subject of experiment [3] is SW480 (G12V) cells. Kind of experiment: Cell viability assay (CELLTITER-GLO), SW480 cells. The settings on record: Homo sapiens, 72 h, 3 days incubation, 2.5% fetal bovine serum, read-out: Inhibition of Cancerous Cells IC50 (μM) SW480 (G12V). How it is done:
as §1

For experiment [4], the system named is H358 (G12C) cells. Kind of experiment: Cell viability assay (CELLTITER-GLO), H358 cells. The note with it: Homo sapiens, NCI-H358, 72 h, 3 days incubation, 2.5% fetal bovine serum, read-out: Inhibition of Cancerous Cells IC50 (μM) H358 (G12C). As for the experimental part: as §1
Experiment [5] deals with Lovo (G13D) cells. Kind of experiment: Cell viability assay (CELLTITER-GLO), Lovo cells. The settings on record: Homo sapiens, 72 h, 3 days incubation, 2.5% fetal bovine serum, read-out: Inhibition of Cancerous Cells IC50 (μM) Lovo (G13D). How it is done: as §1
Experiment [6] concerns the target T1, KRAS protein (Homo sapiens, UniProt P01116, G13D).
T1 construct: engineered to express a Hobbit-tagged endogenous KRAS protein; endogenous in cells; host or cells: H647, endogenous KRAS locus engineered with a HiBiT tag
Description: HIBIT degradation assay, H647 cells. The settings on record: 24 h, HiBiT signal normalized to CTG signal; for Effect on KRAS Protein Degradation, H647, 3 μM: compound at 3 μM; for Effect on KRAS Protein Degradation, H647, 5 μM: compound at 5 μM. As for the experimental part: (§2) HEK293, MIA PaCa-2, AsPc-1, SW620, and H647 cells were engineered to express a […] endogenous KRAS protein. The HEK293 and MIA PaCa-2 cells were cultured in DMEM media supplemented with 10% fetal bovine serum, streptomycin, and penicillin. The AsPc-1, SW620, and H647 were cultured in RPMI media supplemented with 10% fetal bovine serum, streptomycin, and penicillin. The cells were seeded in white walled 96-well plates at 20,000 cells/well in 100 μL culture media in duplicate plates. After incubated at 37° C. under 5% CO2 overnight, the cells were treated with DMSO (control) or a compound, followed by the addition of 100 μL culture media to each well. After the cells were incubated for 24 h at 37° C. under 5% C02, 150 μL media were removed from each well and 50 μL NANOGLO-LGBIT lytic reagent were added to each well, and 50 μL CELLTITER-GLO (CTG) reagent was added to the duplicate plate. Following a 10-minute incubation with shaking, luminescence was measured using a Perkin Elmer ENVISION multimode plate reader. HiBiT signal was normalized to CTG signal. The results are summarized in Table 3, where “A” represents a percentage degradation value of no less than 50%; “B” represents a percentage degradation value of less than 50% and no less than 25%; “C” represents a percentage degradation value of less than 25% and no less than 10%; and “D” represents a percentage degradation value of less than 10%.
In general terms: With HiBiT, luminescence reflects the tagged protein that the partner subunit can reach.

Experiment [7] relates to Molm-13 cells. Description: Cell viability assay, inhibition of Molm-13 cells. The note with it: Homo sapiens; for inhibition at 1 µM: compound at 1 μM; for inhibition at 3 µM: compound at 3 μM. As for the experimental part:
[Worded in the source for another cell line; this cell line is reported under the same test.] as §1

Experiment [8] addresses T2, KRAS protein (Homo sapiens, UniProt P01116).
T2 construct: engineered to express a Hobbit-tagged endogenous KRAS protein; endogenous in cells; host or cells: HEK293, endogenous KRAS locus engineered with a HiBiT tag
Description: HIBIT degradation assay, HEK293 cells. The settings on record: 24 h, HiBiT signal normalized to CTG signal. As for the experimental part:
as §2

For experiment [9], the target named is T3, KRAS protein (Homo sapiens, UniProt P01116, G12D).
T3 construct: engineered to express a Hobbit-tagged endogenous KRAS protein; endogenous in cells; host or cells: AsPC-1, endogenous KRAS locus engineered with a HiBiT tag
T3 sequence (P01116 1-188 isoform P01116-2 G12D): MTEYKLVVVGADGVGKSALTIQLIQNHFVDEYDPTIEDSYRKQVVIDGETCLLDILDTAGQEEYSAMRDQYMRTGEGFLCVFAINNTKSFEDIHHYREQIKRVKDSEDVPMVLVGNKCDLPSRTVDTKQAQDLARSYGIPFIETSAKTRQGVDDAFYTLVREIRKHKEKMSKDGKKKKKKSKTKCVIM
Description: HIBIT degradation assay, AsPC-1 cells. The note with it: 24 h, HiBiT signal normalized to CTG signal; for Effect on KRAS Protein Degradation, AsPC-1, 3 μM: compound at 3 μM; for Effect on KRAS Protein Degradation, AsPC-1, 5 μM: compound at 5 μM. How it is done:
as §2

The target of experiment [10] is T4, KRAS protein (Homo sapiens, UniProt P01116, G12C).
T4 construct: engineered to express a Hobbit-tagged endogenous KRAS protein; endogenous in cells; host or cells: MIA PaCa-2, endogenous KRAS locus engineered with a HiBiT tag
T4 sequence (P01116 whole entry G12C): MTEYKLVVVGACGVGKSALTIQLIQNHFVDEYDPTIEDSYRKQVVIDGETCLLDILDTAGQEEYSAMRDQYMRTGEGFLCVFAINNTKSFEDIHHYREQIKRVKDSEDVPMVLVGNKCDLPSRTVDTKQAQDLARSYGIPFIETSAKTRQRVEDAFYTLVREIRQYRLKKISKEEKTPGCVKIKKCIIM
Kind of experiment: HIBIT degradation assay, MIA PaCa-2 cells. The note with it: 24 h, HiBiT signal normalized to CTG signal. As for the experimental part: as §2

T1 sequence (P01116 1-185 isoform P01116-2 G13D limits assumed): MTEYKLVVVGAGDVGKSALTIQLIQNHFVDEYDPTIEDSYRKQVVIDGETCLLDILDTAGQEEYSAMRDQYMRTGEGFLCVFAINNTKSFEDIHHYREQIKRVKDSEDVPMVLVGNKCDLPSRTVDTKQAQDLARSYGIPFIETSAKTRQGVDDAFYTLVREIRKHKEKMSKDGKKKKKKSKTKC
T2 sequence (P01116 1-188 isoform P01116-2): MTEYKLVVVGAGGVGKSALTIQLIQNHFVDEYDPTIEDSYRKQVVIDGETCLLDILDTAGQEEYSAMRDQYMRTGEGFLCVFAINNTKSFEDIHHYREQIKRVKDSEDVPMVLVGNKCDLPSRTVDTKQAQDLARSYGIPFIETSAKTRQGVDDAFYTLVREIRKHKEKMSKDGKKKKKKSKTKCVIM

Turning to `Cc1nn2c(N3CCN(CCO)CC3)cc(-c3cccc(CCCCCCCN4CCC(Nc5cccc(NC6CCC(=O)NC6=O)c5)CC4)c3)nc2c1-c1ccccc1` (stereo not shown) [Compound A1, 3-((3-((1-(7-(3-(7-(4-(2-Hydroxyethyl)piperazin-1-yl)-2-methyl-3-phenyl-pyrazolo[1,5-a]pyrimidin-5-yl)phenyl)heptyl)piperidin-4-yl)amino)phenyl)amino)piperidine-2,6-dione], the IC50 in experiment [1] was found to be 0.81 µM; in experiment [2], 0.54 µM; in experiment [3], 0.4 µM; in experiment [4] it was 0.9 µM; in experiment [5], 0.43 µM.

On to `Cc1nn2c(N3CCN(CCO)CC3)cc(-c3cccc(CCCCCN4CCN(C(=O)CNc5cccc(C6CCC(=O)NC6=O)c5)CC4)c3)nc2c1-c1ccccc1` (stereo not shown) [Compound B5, 3-(3-((2-(4-(5-(3-(7-(4-(2-hydroxyethyl)piperazin-1-yl)-2-methyl-3-phenyl-pyrazolo[1,5-a]pyrimidin-5-yl)phenyl)pentyl)piperazin-1-yl)-2-oxoethyl)amino)phenyl)-piperidine-2,6-dione], for which the IC50 amounted to 0.83 µM in experiment [1]; 0.45 µM in experiment [2]; 0.42 µM in experiment [3]; 0.52 µM in [4]; 0.31 µM in experiment [5]. The “Effect on KRAS Protein Degradation, H647, 3 μM” value (“Effect … H647, 3 μM” for short) in experiment [6] is “D (a percentage degradation value of less than 10%)”. Also, the “Effect on KRAS Protein Degradation, H647, 5 μM” value in experiment [6] is recorded as “A (a percentage degradation value of no less than 50%)”.

With `Cc1nn2c(N3CCN(CCO)CC3)cc(-c3cccc(CCCCCN4CCN(C(=O)CNc5cccc6c(C7CCC(=O)NC7=O)nn(C)c56)CC4)c3)nc2c1-c1ccccc1` (stereo not shown) [Compound D5, 3-(7-((2-(4-(5-(3-(7-(4-(2-hydroxyethyl)piperazin-1-yl)-2-methyl-3-phenyl-pyrazolo[1,5-a]pyrimidin-5-yl)phenyl)pentyl)piperazin-1-yl)-2-oxoethyl)amino)-1-methyl-1H-indazol-3-yl)piperidine-2,6-dione], the IC50 in experiment [1] came out at 0.95 µM; in experiment [2], 0.5 µM; in [3], 0.42 µM; in experiment [4], 0.49 µM; in experiment [5], 0.27 µM.

In experiment [7], `Cc1nn2c(N3CCN(CCO)CC3)cc(-c3ccccc3)nc2c1-c1cccc(CCCCCN2CCN(C(=O)CNc3cccc4c(N5CCC(=O)NC5=O)nn(C)c34)CC2)c1` [Compound D17, 1-(7-((2-(4-(5-(3-(7-(4-(2-hydroxyethyl)piperazin-1-yl)-2-methyl-5-phenyl-pyrazolo[1,5-a]pyrimidin-3-yl)phenyl)pentyl)piperazin-1-yl)-2-oxoethyl)amino)-1-methyl-1H-indazol-3-yl)dihydropyrimidine-2,4(1H,3H)-dione] yielded an inhibition at 1 µM of 34% and an inhibition at 3 µM of 99%. Besides, in experiment [6], the “Effect … H647, 3 μM” value was “C (a percentage degradation value of less than 25% and no less than 10%)”. In [8] (compound at 3 μM), the “Effect on KRAS Protein Degradation, HEK293, 3 μM” value was “C (a percentage degradation value of less than 25% and no less than 10%)”. Also, the “Effect on KRAS Protein Degradation, HEK293, 5 μM” value in experiment [8] (compound at 5 μM) is “C (a percentage degradation value of less than 25% and no less than 10%)”. Besides, in [9], the “Effect on KRAS Protein Degradation, AsPC-1, 3 μM” value (from here on “Effect … AsPC-1, 3 μM”) is “B (a percentage degradation value of less than 50% and no less than 25%)”; the “Effect on KRAS Protein Degradation, AsPC-1, 5 μM” value (“Effect … AsPC-1, 5 μM” below) was “C (a percentage degradation value of less than 25% and no less than 10%)”.

As for `Cc1nn2c(N3CCN(CCO)CC3)cc(-c3ccccc3)nc2c1-c1cccc(CCCCCCCN2CCN(C(=O)CNc3cccc4c(N5CCC(=O)NC5=O)nn(C)c34)CC2)c1` [Compound D18, 1-(7-((2-(4-(7-(3-(7-(4-(2-hydroxyethyl)piperazin-1-yl)-2-methyl-5-phenyl-pyrazolo[1,5-a]pyrimidin-3-yl)phenyl)heptyl)piperazin-1-yl)-2-oxoethyl)amino)-1-methyl-1H-indazol-3-yl)dihydropyrimidine-2,4(1H,3H)-dione], in [7], the inhibition at 1 µM came out at 14% and at 3 µM the inhibition was 95%. Also, in experiment [6], the “Effect … H647, 3 μM” value is given as “D (a percentage degradation value of less than 10%)”; the “Effect on KRAS Protein Degradation, H647, 5 μM” value is “C (a percentage degradation value of less than 25% and no less than 10%)”. In experiment [9], the “Effect … AsPC-1, 3 μM” value was “B (a percentage degradation value of less than 50% and no less than 25%)”; the “Effect … AsPC-1, 5 μM” value is “C (a percentage degradation value of less than 25% and no less than 10%)”.

Take `Cc1nn2c(N3CCN(CCO)CC3)cc(-c3ccccc3)nc2c1-c1cccc(CCCN2CCN(C(=O)COc3cccc4c(C5CCC(=O)NC5=O)nn(C)c34)CC2)c1` (stereo not shown) [Compound D20, 3-(7-(2-(4-(3-(3-(7-(4-(2-Hydroxyethyl)piperazin-1-yl)-2-methyl-5-phenyl-pyrazolo[1,5-a]pyrimidin-3-yl)phenyl)propyl)piperazin-1-yl)-2-oxoethoxy)-1-methyl-1H-indazol-3-yl)piperidine-2,6-dione]: in experiment [7], 1 µM produced 0% inhibition and the inhibition at 3 µM amounted to 71%. Further, in experiment [9], the “Effect … AsPC-1, 3 μM” value is recorded as “D (a percentage degradation value of less than 10%)”; the “Effect … AsPC-1, 5 μM” value is “C (a percentage degradation value of less than 25% and no less than 10%)”. In addition, in [10] (compound at 3 μM), the “Effect on KRAS Protein Degradation, MIA PaCa-2, 3 μM” value is “C (a percentage degradation value of less than 25% and no less than 10%)”. For the same compound, the “Effect on KRAS Protein Degradation, MIA PaCa-2, 5 μM” value in experiment [10] (compound at 5 μM) was “C (a percentage degradation value of less than 25% and no less than 10%)”.

In the case of `Cc1nn2c(N3CCN(CCO)CC3)cc(-c3ccccc3)nc2c1-c1ccccc1` [Compound T1, 2-(4-(2-methyl-3,5-diphenylpyrazolo[1,5-a]pyrimidin-7-yl)piperazin-1-yl)ethan-1-ol, reference compound], in experiment [7], 1 µM produced 0% inhibition. In experiment [7] (compound at 10 μM), this compound yielded an inhibition at 10 µM of 99%. Besides, the IC50 in experiment [1] was 2.5 µM; in [2] it was 1.9 µM; in experiment [3], 0.7 µM; in [4], 2.4 µM; in [5], 1.3 µM.

The IC50 is the point on the concentration scale where inhibition reaches its midpoint. One may read the inhibition as how much of the control response was suppressed. A high value points to a response far below the control.
